Reference: PMC8196871, “Molecular Imaging and Preclinical Studies of Radiolabeled Long-Term RGD Peptides in U-87 MG Tumor-Bearing Mice” (International Journal of Molecular Sciences, 2021)
One block for each compound: values may come before it.

What was measured:
tumor = tested on: tumor; set-up: method as in PMID 25621196; details: cited from earlier work
U-87 MG cells = format: binding, human; details: 4 h
Description: As the concentration of unlabeled DOTA-EB-cRGDfK or DOTA-cRGDfK increased, the binding ratio of ^111In-DOTA-EB-cRGDfK decreased, indicating the presence of specific binding affinity (Figure 2C).
U-87 MG cells were seeded into 24-well plates at a density of 1 × 10^5 cells per well and incubated overnight. Different concentrations ranging from 0.01 nM to 5000 nM of DOTA-EB-cRGDfK or DOTA-cRGDfK were added to the wells. U-87 MG cells were then incubated with 10 nM ^111In-DOTA-EB-cRGDfK for 4 h at 37 °C. Cells were washed once with 0.5 mL PBS and were removed from each well by 0.25% trypsin-EDTA (Gibco, Gaithersburg, MD, USA). The cell suspensions were collected and measured by using a PerkinElmer 2480 Automatic Gamma Counter (PerkinElmer, Waltham, MA, USA). Binding results were expressed as a percent of total counts, and IC50 values were calculated using SigmaPlot 12.5 (Systat Software, Inc., San Jose, CA, USA).

[1] = mouse, in vivo, iv
Description: Blood samples (10 μL) were collected by heart puncture under 2% isoflurane anesthesia at 0.083, 0.5, 2, 4, 24, 48, 72, 96, and 168 h. The radioactivity of blood samples was measured by PerkinElmer 2480 gamma counter and expressed as the percentage injected dose per gram (% ID/g). Data was used to determine the pharmacokinetic parameters by noncompartmental analysis (NCA) and the analysis software was WinNonlin 7.0 (Pharsight Corporation, Mountain View, CA, USA). Parameters, including terminal half-life (T1/2λz), maximum concentration (Cmax), total body clearance (Cl), area under curve (AUC), and mean residence time (MRT) were determined. Pharmacokinetic parameters associated with the terminal phase were calculated using the best-fit method to estimate the terminal half-life.

[2] = NanoSPECT/CT imaging with image quantification; format: in vivo; details: female, NOD/SCID, mouse, tumor, iv, 2.5 ug, total radioactivity; 0.5 h after tail-vein injection (about 18.5 MBq, 2.5 μg); U-87 MG xenografts in mice; nanoSPECT/CT ROI
Description: Figure 3 presented nanoSPECT/CT images of U-87 MG xenografts in mice administered with different radiolabeled peptides. […] Comparing with ^111In-DOTA-EB-cRGDfK, the highest tumor uptake of ^111In-DOTA-cRGDfK was 2.0 ± 0.5% ID/g at 0.5 h. […] The ratios of tumor to muscle and tumor to liver were 1.8 ± 0.7 and 0.5 ± 0.1 at 0.5 h, respectively. The highest tumor uptake of ^111In-DOTA-EB was 10.3 ± 4.4% ID/g at 24 h, and it slightly dropped to 9.97 ± 4.37% ID/g at 72 h.
The human glioblastoma cell line, U-87 MG (stock number: BCRC 60360), was obtained from Bioresource Collection and Research Center. Cells were grown in Minimum Essential Medium (MEM; Gibco, Grand Island, NY, USA) supplemented with 10% (v/v) fetal bovine serum (FBS; Gibco, Gaithersburg, MD, USA) and 1% antibiotic antimycotic solution (Sigma-Aldrich, St. Louis, MO, USA) at 37 °C under 5% CO2 incubation. Female non-obese diabetic, severe combined immunodeficiency (NOD/SCID) mice were obtained from BioLASCO Taiwan Co., Ltd. The 6-week-old mice were housed in a 12 h light cycle at 22 °C, with food and water provided ad libitum. […]
The procedure for nanoSPECT/CT imaging has been previously described. […] The image quantification of the region of interest (ROI) was acquired by PMOD v. […]

SMILES: N[C@@H](Cc1ccc(B(O)O)cc1[18F])C(=O)O [^18F-BPA]
Tumor uptake (tumor): 1.44 ± 0.44 % ID/g

IC50 (U-87 MG cells): 35.2 nM
SMILES: N=C(N)NCCC[C@@H]1NC(=O)[C@H](CCCCNC(=O)CN2CCN(CC(=O)O)CCN(CC(=O)O)CCN(CC(=O)O)CC2)NC(=O)[C@@H](Cc2ccccc2)NC(=O)[C@H](CC(=O)O)NC(=O)CNC1=O [DOTA-cRGDfK]

Cl (total body clearance) [1]: 12.9 mL/h | Maximum concentration (Cmax) in blood [1]: 3.74 % ID/g | T1/2λz (terminal half-life) [1]: 17.2 h | tissue uptake at 0.5 h [2]: 2 ± 0.5 %ID/g
SMILES: N=C(N)NCCC[C@@H]1NC(=O)[C@H](CCCCNC(=O)CN2CCN(CC(=O)O)CCN(CC(=O)O)CCN(CC(=O)O)CC2)NC(=O)[C@@H](Cc2ccccc2)NC(=O)[C@H](CC(=O)O)NC(=O)CNC1=O [^111In-DOTA-cRGDfK, metal not drawn]
